Assay results published in publication PMC2191966 (The Journal of Experimental Medicine, 1995).

What was measured:
L-Db cells = assay type: cell-based, Murine; settings: BFA; functional TAP complex; Fig. 6 a
T2-Db cells [1] = assay type: cell-based; settings: chloroquine: preincubation 80 μM, infection 60 μM, assay 5 μM; Fig. 6
T2-Db cells [2] = test: 4-h 51Cr CTL assay, clone F5, T2-Db cells with added synthetic peptide; assay type: cell-based
[3] = T2-Db lysate with protease inhibitors; Fig. 5
T2-Kk cells = assay type: cell-based; settings: Kk-restricted anti-[…] line, E:T 10:1, Fig. 9 e

C[C@H]1CCC/C=C/[C@@H]2C[C@H](O)C[C@H]2[C@H](O)/C=C/C(=O)O1 [BFA, brefeldin A]
effect on presentation of L+ and L- polypeptides in L-Db cells (L-Db cells): Inhibition of presentation of both the L+ and L-polypeptides in L-Db cells

CCN(CC)CCCC(C)Nc1ccnc2cc(Cl)ccc12 (stereo not drawn) [chloroquine]
effect on processing and presentation of L+M364 and L+IMP in T2-Db cells (T2-Db cells [1]): no effect

IASNENMDAM [365-374]
relative potency in sensitizing T2-Db cells for lysis (T2-Db cells [2]; relative to 366-374, Fig. 3 a): followed by 365-374

MASNENMDAM [M366-374]
in vitro degradation after cell lysis [3]: Little in vitro degradation of M366-374 occurs after cell lysis

QIASNENMDAM [364-374]
loss of potency in sensitizing T2-Db cells for lysis (fold less potent) (T2-Db cells [2]; Fig. 3 a): over 10,000 fold

SDYEGRLI
lowest peptide concentration at which pulsed T2 transfectants are recognized (T2-Kk cells): ≤ 0.5 nM
